Measurements as given in patent US11572590B2, “Methods for evaluating tumor cell spheroids using 3D microfluidic cell culture device” (Dana-Farber Cancer Institute, Inc., priority 2017, dated 2023).
Where two headings read alike, the source gives them in different places.

Experiments:
Assay in all cases: SelectScreen Kinase Profiling, single point inhibition and IC50 for off-target kinases
Assay type in all cases: biochemical
off-target kinases [1] = biological target: off-target kinases (Homo sapiens, UniProt O75116); conditions: ROCK2, ZLYTE, ATP Km app
Sequence of off-target kinases (Homo sapiens, UniProt O75116) (O75116 whole entry): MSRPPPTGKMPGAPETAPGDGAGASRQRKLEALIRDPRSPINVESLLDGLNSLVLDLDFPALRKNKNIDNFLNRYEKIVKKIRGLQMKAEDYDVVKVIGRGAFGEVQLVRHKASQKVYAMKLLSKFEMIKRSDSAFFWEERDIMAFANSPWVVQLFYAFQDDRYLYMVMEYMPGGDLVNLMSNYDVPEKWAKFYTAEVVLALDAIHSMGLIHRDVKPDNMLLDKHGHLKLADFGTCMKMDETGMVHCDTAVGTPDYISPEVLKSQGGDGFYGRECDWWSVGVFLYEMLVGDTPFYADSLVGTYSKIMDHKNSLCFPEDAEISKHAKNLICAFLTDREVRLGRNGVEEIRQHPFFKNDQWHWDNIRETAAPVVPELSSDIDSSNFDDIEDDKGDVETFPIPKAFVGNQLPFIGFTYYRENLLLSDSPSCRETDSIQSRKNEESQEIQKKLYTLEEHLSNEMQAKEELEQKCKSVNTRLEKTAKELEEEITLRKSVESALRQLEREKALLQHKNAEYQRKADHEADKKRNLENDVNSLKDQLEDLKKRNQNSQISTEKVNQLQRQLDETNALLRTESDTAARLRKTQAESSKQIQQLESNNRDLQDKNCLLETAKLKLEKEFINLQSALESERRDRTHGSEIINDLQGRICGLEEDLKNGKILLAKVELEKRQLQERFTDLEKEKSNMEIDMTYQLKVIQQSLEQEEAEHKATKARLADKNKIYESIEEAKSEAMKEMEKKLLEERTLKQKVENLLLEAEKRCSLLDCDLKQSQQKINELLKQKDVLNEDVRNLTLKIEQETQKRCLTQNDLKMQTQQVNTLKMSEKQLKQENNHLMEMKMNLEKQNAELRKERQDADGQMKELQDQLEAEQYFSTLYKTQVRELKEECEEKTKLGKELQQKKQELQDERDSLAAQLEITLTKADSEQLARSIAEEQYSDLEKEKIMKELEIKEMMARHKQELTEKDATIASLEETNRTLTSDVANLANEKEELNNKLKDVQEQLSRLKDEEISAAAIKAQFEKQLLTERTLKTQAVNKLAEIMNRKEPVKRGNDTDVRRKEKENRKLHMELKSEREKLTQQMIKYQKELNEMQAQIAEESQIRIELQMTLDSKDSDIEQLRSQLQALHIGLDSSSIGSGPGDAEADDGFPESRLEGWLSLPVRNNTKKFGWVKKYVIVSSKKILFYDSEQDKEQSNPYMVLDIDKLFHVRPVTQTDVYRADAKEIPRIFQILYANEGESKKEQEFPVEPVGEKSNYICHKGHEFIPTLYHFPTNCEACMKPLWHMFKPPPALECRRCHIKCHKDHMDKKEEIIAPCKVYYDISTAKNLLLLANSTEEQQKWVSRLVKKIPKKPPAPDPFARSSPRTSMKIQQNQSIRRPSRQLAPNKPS
Method: (§1) Biochemical single point inhibition and IC50 concentrations for TBK1, IKKε (IKBKE), and off-target kinases were determined at ThermoFisher Scientific using SelectScreen Kinase Profiling Services (Madison, Wis., USA) (Tables S4A and S4B-1-7). To determine cellular potency, the human colorectal cancer carcinoma cell line HCT116 (ATCC, Manassas, Va.) was maintained in T175 flasks in complete RPMI medium; RPMI 1640 supplemented with 10% FBS, 1× Penicillin-Streptomycin solution and 1×MEM (non-essential amino acids). HCT116 cells were grown to 90-95% confluency in T175 flasks containing complete RPMI medium and transfected in bulk using Lipofectamine 2000 (Invitrogen, Carlsbad, Calif.) with 70 μg of ISG54-luciferase reporter plasmid (Elim Biopharmaceuticals Inc., Hayward, Calif.). The reporter plasmid contains a luciferase gene expression cassette under the transcriptional regulation of the promoter of the human interferon stimulated gene 54 (ISG54). Transfection of the cells was allowed to take place for 6 hours, after which the cells were harvested by treatment with 0.25% trypsin EDTA (Corning Inc., Corning, N.Y.). Trypsinized cells were added to 384-well poly-d-lysine treated black clear bottom tissue culture assay plates (Greiner Bio-One GmbH, Kremsmünster, Austria) at a density of 20,000 cells/well in 80 μL of complete RPMI medium and incubated overnight. After 16-18 hours post-transfection, the assay plates were washed with PBS (Corning Inc., Corning, N.Y.), followed by addition of 80 μL/well of serum-free RPMI 1640 medium containing 1× Penicillin-Streptomycin solution, 1×MEM and 350 nL of DMSO or titrations of Compound 1. Compound 1 titrations were generated by 1.5-fold dilution steps in two overlapping serial dilution series to generate a 40-point compound dose range. After incubation at 37° C. for 1 hour, the cells were stimulated with Poly(I:C) (InvivoGen, San Diego, Calif.) at a final concentration of 15 μg/mL in Optimem media (Life Technologies, Rockville, Md.). The assay plates were incubated for 5 hours at 37° C., followed by addition of One-Glo luciferase firefly reagent (Promega, Madison, Wis.) at 1:1 volume/well and luminescence was measured in an EnVision Multilabel Plate Reader (PerkinElmer, Santa Clara, Calif.). The EC50 values were calculated from the fit of the dose-response curves to a four-parameter equation. All EC50 values represent geometric mean values of a minimum of four determinations.

off-target kinases [2] = biological target: T1, off-target kinases (Homo sapiens, UniProt Q09013); conditions: DMPK, LanthaScreen Binding
T1 sequence (Q09013 1-629): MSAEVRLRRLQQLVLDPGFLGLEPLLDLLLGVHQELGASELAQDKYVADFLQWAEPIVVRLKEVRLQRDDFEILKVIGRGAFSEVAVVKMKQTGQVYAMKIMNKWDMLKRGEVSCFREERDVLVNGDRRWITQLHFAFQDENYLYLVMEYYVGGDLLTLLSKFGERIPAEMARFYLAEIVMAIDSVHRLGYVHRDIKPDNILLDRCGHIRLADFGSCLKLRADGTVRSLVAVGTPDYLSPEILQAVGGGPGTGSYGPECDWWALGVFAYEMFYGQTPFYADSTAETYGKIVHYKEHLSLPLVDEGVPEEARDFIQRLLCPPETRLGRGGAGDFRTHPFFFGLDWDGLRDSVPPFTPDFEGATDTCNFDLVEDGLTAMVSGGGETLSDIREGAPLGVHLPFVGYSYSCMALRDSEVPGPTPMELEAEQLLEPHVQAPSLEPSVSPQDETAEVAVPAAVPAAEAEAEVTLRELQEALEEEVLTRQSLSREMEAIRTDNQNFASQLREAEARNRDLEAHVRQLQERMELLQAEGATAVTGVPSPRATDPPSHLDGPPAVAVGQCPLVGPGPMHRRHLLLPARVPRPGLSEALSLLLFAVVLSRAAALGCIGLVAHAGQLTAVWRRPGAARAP
Method: as §1

off-target kinases [3] = biological target: T2, off-target kinases (Homo sapiens, UniProt Q8IVH8); conditions: MAP4K3 (GLK), LanthaScreen Binding
T2 sequence (Q8IVH8 1-894): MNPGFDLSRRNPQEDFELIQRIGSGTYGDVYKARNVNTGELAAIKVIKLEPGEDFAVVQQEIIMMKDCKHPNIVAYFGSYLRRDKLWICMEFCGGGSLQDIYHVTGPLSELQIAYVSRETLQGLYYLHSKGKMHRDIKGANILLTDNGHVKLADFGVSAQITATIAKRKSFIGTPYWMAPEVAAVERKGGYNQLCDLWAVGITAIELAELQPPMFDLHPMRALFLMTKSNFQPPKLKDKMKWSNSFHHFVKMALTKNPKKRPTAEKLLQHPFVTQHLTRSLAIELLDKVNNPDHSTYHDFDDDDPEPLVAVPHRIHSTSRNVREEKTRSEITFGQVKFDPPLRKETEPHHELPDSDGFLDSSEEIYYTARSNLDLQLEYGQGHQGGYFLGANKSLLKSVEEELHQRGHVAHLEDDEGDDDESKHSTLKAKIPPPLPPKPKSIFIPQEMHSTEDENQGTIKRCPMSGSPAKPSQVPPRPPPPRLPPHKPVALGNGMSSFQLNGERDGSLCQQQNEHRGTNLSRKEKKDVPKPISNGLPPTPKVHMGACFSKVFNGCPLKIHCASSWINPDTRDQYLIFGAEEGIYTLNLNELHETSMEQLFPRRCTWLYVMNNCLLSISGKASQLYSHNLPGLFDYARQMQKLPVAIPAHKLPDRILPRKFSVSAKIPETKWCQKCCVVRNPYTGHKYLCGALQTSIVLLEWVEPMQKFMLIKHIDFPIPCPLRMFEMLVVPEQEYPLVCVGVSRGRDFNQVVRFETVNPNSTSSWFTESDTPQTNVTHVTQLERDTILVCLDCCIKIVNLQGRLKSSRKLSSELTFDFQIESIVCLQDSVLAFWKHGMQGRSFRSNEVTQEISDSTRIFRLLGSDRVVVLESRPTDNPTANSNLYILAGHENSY
Method: as §1

off-target kinases [4] = biological target: off-target kinases (Homo sapiens, UniProt Q9H3Y6); conditions: SRMS (Srm), ZLYTE, ATP Km app
Sequence of off-target kinases (Homo sapiens, UniProt Q9H3Y6) (Q9H3Y6 whole entry): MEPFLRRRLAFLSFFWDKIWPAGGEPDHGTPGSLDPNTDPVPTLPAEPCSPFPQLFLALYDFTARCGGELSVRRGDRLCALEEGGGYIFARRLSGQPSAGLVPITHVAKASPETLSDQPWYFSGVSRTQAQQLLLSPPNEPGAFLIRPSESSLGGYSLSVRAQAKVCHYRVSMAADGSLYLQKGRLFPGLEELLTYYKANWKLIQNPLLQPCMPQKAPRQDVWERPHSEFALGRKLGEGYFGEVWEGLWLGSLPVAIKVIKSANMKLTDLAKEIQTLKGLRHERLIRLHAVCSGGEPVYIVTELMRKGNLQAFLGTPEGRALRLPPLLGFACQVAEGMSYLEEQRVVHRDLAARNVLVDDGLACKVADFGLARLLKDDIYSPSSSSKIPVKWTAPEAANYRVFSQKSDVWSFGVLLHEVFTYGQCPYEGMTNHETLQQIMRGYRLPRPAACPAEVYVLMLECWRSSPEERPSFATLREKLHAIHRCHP
Method: as §1

off-target kinases [5] = biological target: off-target kinases (Homo sapiens, UniProt Q9NQU5); conditions: PAK6, ZLYTE, ATP Km app
Sequence of off-target kinases (Homo sapiens, UniProt Q9NQU5) (Q9NQU5 whole entry): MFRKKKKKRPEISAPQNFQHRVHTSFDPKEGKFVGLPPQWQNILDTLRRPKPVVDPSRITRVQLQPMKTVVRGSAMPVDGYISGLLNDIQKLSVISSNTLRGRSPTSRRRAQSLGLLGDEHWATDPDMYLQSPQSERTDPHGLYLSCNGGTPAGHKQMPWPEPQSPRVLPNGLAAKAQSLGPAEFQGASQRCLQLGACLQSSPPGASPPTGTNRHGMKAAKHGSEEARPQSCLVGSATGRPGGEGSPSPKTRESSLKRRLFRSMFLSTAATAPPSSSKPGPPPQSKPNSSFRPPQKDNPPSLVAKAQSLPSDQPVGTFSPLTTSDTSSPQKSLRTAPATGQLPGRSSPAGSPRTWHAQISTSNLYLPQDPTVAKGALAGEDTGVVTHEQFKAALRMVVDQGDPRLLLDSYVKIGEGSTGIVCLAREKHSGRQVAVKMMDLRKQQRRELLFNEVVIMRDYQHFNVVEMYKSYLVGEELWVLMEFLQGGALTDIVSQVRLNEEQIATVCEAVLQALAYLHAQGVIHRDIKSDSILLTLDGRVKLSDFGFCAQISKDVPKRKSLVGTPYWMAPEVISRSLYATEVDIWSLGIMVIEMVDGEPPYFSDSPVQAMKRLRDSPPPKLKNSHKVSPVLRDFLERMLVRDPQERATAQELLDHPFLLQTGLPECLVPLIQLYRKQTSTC
Method: as §1

N#Cc1cc(-c2ncnc(Nc3ccc(N4CCN(C5COC5)CC4)cc3)n2)ccc1OC1CCOCC1 [Compound 1, 5-(4-((4-(4-(oxetan-3-yl)piperazin-1-yl)phenyl)amino)-1,3,5-triazin-2-yl)-2-((tetrahydro-2H-pyran-4-yl)oxy)benzonitrile]
inhibition (off-target kinases [1]; read-out: % Inhibition 1): 12%
inhibition (off-target kinases [1]; read-out: % Inhibition 2): 14%
inhibition (off-target kinases [1]; read-out: % Inhibition Avg): 13%
inhibition (off-target kinases [2]; read-out: % Inhibition 1): 76%
inhibition (off-target kinases [2]; read-out: % Inhibition 2): 79%
inhibition (off-target kinases [2]; read-out: % Inhibition Avg): 78%
inhibition (off-target kinases [3]; read-out: % Inhibition 1): 16%
inhibition (off-target kinases [3]; read-out: % Inhibition 2): 21%
inhibition (off-target kinases [3]; read-out: % Inhibition Avg): 18%
inhibition (off-target kinases [4]; read-out: % Inhibition 1): 5%
inhibition (off-target kinases [4]; read-out: % Inhibition 2): 3%
inhibition (off-target kinases [4]; read-out: % Inhibition Avg): 4%
inhibition (off-target kinases [5]; read-out: % Inhibition 1): 9%
inhibition (off-target kinases [5]; read-out: % Inhibition 2): 4%
inhibition (off-target kinases [5]; read-out: % Inhibition Avg): 6%
